Results from article PMC8367633 (Journal of Applied Glycoscience, 2020).

Target: T1, Blon_0248 (Bifidobacterium longum, UniProt A0ACD7UNL5)
T1 sequence (A0ACD7UNL5 1-449): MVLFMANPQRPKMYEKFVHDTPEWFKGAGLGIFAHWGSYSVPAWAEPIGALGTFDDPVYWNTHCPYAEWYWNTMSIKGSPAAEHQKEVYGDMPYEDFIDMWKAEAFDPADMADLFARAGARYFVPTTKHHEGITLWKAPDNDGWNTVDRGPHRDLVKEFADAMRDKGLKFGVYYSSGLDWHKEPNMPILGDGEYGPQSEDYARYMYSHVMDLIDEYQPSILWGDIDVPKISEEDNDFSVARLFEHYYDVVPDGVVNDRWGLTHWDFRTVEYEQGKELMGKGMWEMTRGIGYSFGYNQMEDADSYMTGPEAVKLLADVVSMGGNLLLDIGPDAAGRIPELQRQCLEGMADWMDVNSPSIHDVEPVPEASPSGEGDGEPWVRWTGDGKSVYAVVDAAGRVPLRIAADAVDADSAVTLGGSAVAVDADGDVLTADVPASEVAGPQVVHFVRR
Assay: pNP release, absorbance […] nm
Format: biochemical
Conditions: 50 mM sodium acetate pH 6.0, 37 °C

For `C[C@@H]1O[C@@H](Oc2ccc([N+](=O)[O-])cc2)[C@@H](O)[C@H](O)[C@@H]1O` [pNP-α-Fuc], the “pNP release, absorbance 405 nm” value was “Both proteins specifically hydrolyzed pNP-α-Fuc, but not any of the other pNP-glycosides tested”.
